Numbers after ± are expanded uncertainties.
Assay: mn = molality of the nth substance listed, in mol/kg
Details: for surface tension liquid-gas: Pendant drop shape; for electrical conductivity: 100 kPa, Liquid, Mettler Toledo inLab 710

CCCCCCCCCCCCCC[N+](C)(C)CCCCCC[N+](C)(C)CCCCCCCCCCCCCC.[Br-].[Br-] + O
Details | electrical conductivity, 298.15 K [S/m] | electrical conductivity, 303.15 K [S/m] | electrical conductivity, 308.15 K [S/m] | electrical conductivity, 313.15 K [S/m] | electrical conductivity, 318.15 K [S/m] | electrical conductivity, 323.15 K [S/m] | surface tension liquid-gas, 298.15 K [mN/m]
m1 = 1e-05 | – | – | – | – | – | – | 61.8 ± 9.3
m1 = 2e-05 | – | – | – | – | – | – | 56.01 ± 11
m1 = 3e-05 | – | – | – | – | – | – | 52.48 ± 6.4
m1 = 4e-05 | – | – | – | – | – | – | 50.87 ± 4.5
m1 = 5e-05 | – | – | – | – | – | – | 49.03 ± 3.3
m1 = 6e-05 | – | – | – | – | – | – | 47.1 ± 3.9
m1 = 7e-05 | – | – | – | – | – | – | 45.98 ± 2.8
m1 = 8e-05 | – | – | – | – | – | – | 43.05 ± 2.5
m1 = 0.0001 | – | – | – | – | – | – | 42.1 ± 0.87
m1 = 0.000111 | 0.00247 ± 0.00034 | 0.00278 ± 0.00043 | 0.00326 ± 0.00044 | 0.00342 ± 0.00038 | 0.00369 ± 0.0006 | 0.00384 ± 0.00062 | –
m1 = 0.000115 | 0.00256 ± 0.00032 | – | – | – | – | – | –
m1 = 0.000118 | – | 0.00293 ± 0.00042 | 0.00339 ± 0.00042 | 0.00353 ± 0.00043 | 0.00387 ± 0.00057 | 0.004 ± 0.00066 | –
m1 = 0.00012 | 0.00265 ± 0.00031 | – | – | – | – | – | 41.5 ± 0.87
m1 = 0.000125 | 0.00273 ± 0.00031 | 0.00311 ± 0.0004 | 0.00353 ± 0.00041 | 0.00364 ± 0.00048 | 0.00407 ± 0.0006 | 0.00426 ± 0.00063 | –
m1 = 0.00013 | 0.0028 ± 0.00032 | – | – | – | – | – | –
m1 = 0.000133 | – | 0.00327 ± 0.00041 | 0.00369 ± 0.0004 | 0.00386 ± 0.00046 | 0.00431 ± 0.00057 | 0.00452 ± 0.00061 | –
m1 = 0.000136 | 0.00289 ± 0.00033 | – | – | – | – | – | –
m1 = 0.00014 | – | – | – | – | – | – | 40.55 ± 0.76
m1 = 0.000143 | 0.003 ± 0.00031 | 0.00347 ± 0.0004 | 0.00386 ± 0.0004 | 0.00411 ± 0.00048 | 0.00454 ± 0.00057 | 0.00482 ± 0.00063 | –
m1 = 0.00015 | 0.00312 ± 0.00031 | 0.00361 ± 0.00038 | 0.004 ± 0.0004 | 0.00429 ± 0.00053 | 0.00478 ± 0.00058 | 0.00504 ± 0.00063 | –
m1 = 0.000158 | 0.00326 ± 0.00029 | 0.00375 ± 0.00035 | 0.00418 ± 0.00039 | 0.00449 ± 0.00051 | 0.00503 ± 0.00055 | 0.00526 ± 0.00061 | –
m1 = 0.000167 | 0.00338 ± 0.00029 | 0.00391 ± 0.00035 | 0.00438 ± 0.0004 | 0.00467 ± 0.00053 | 0.00529 ± 0.00057 | 0.00554 ± 0.00061 | –
m1 = 0.00017 | – | – | – | – | – | – | 39.84 ± 0.61
m1 = 0.000176 | 0.00352 ± 0.00027 | 0.00407 ± 0.00032 | 0.00458 ± 0.0004 | 0.00494 ± 0.00049 | 0.00559 ± 0.00057 | 0.00586 ± 0.00061 | –
m1 = 0.000188 | 0.00365 ± 0.00025 | 0.00424 ± 0.00029 | 0.00478 ± 0.00035 | 0.00523 ± 0.00047 | 0.00588 ± 0.00052 | 0.00618 ± 0.00058 | –
m1 = 0.000197 | – | 0.00435 ± 0.00027 | 0.00493 ± 0.00034 | 0.00541 ± 0.00042 | 0.00613 ± 0.00051 | 0.00647 ± 0.00056 | –
m1 = 0.0002 | 0.0038 ± 0.00022 | – | – | – | – | – | 39.13 ± 0.42
m1 = 0.000207 | – | 0.0045 ± 0.00027 | 0.00512 ± 0.00033 | 0.00562 ± 0.00041 | 0.00638 ± 0.00049 | 0.00676 ± 0.00055 | –
m1 = 0.000214 | 0.00396 ± 0.00023 | – | – | – | – | – | –
m1 = 0.000218 | – | 0.00464 ± 0.00026 | 0.00529 ± 0.00032 | 0.00582 ± 0.00036 | 0.00665 ± 0.00048 | 0.00702 ± 0.00053 | –
m1 = 0.000231 | 0.00413 ± 0.00022 | 0.00479 ± 0.00024 | 0.00548 ± 0.00028 | 0.00602 ± 0.00034 | 0.00694 ± 0.00041 | 0.00736 ± 0.00049 | –
m1 = 0.00024 | 0.00423 ± 0.00021 | 0.00491 ± 0.00023 | 0.0056 ± 0.00028 | 0.00617 ± 0.00031 | 0.00714 ± 0.00042 | 0.0076 ± 0.0005 | –
m1 = 0.00025 | 0.00434 ± 0.00021 | 0.00502 ± 0.00023 | 0.00573 ± 0.00028 | 0.00633 ± 0.00031 | 0.00734 ± 0.0004 | 0.00784 ± 0.00048 | –
m1 = 0.000261 | 0.00445 ± 0.0002 | 0.00513 ± 0.00021 | 0.00587 ± 0.00027 | 0.00647 ± 0.00028 | 0.00755 ± 0.00039 | 0.00808 ± 0.00042 | –
m1 = 0.000273 | 0.00456 ± 0.00019 | 0.00524 ± 0.00022 | 0.00604 ± 0.00027 | 0.00663 ± 0.00029 | 0.00777 ± 0.00037 | 0.00832 ± 0.00039 | –
m1 = 0.000286 | 0.00469 ± 0.0002 | 0.00539 ± 0.00025 | 0.00621 ± 0.00022 | 0.00681 ± 0.00043 | 0.008 ± 0.00021 | 0.00856 ± 0.00039 | –
m1 = 0.0003 | 0.00481 ± 0.00019 | 0.00556 ± 0.00026 | 0.00639 ± 0.00022 | 0.00704 ± 0.00044 | 0.00822 ± 0.0002 | 0.0088 ± 0.00037 | 38.57 ± 0.38
m1 = 0.0004 | – | – | – | – | – | – | 38.4 ± 0.38

O [water] + CCCCCCCCCCCC[N+](C)(C)CCCC[N+](C)(C)CCCCCCCCCCCC.[Br-].[Br-]
Details | surface tension liquid-gas [mN/m]
298.15 K, m2 = 0 | 71.98 ± 2.4

O [water] + CCCCCCCCCCCC[N+](C)(C)CCCCCC[N+](C)(C)CCCCCCCCCCCC.[Br-].[Br-]
Details | surface tension liquid-gas [mN/m]
298.15 K, m2 = 0 | 71.98 ± 2.2

From the NIST ThermoML archive (doi:10.1021/je500513b)
